{"source": "patent US20260226497A1", "about": "“TRANSGENIC MAIZE EVENT MON 87427” (Monsanto Technology LLC, priority 2009, published 2026)", "test_system": "event MON 87427 hybrids", "format": "in vivo, maize", "conditions": "two successive sprays at 2.25 lb a.e./acre each", "description": "This illustrates that the F1 hybrid plants from event MON 87427 crosses are fully tolerant to glyphosate when used for weed control."}
{"smiles": "O=C(O)CNCP(=O)(O)O", "note": "[glyphosate, N-phosphonomethylglycine]", "values": [{"measurement": "injury or male fertility compared with NK603 hybrid", "result": "no difference was observed in injury or male fertility"}]}
